Results: publication PMC7904550, “Application of grouping and read-across for the evaluation of parabens of different chain lengths with a particular focus on endocrine properties” (Archives of Toxicology, 2021)

What was measured:
mammalian cells = conditions: cited from earlier work
rats = conditions: read-across from MP; ref ECHA dissemination portal; cited from earlier work
Wistar rats = assay: Higher-tier studies taken together (OECD TG 408, 414, 421/422, 443): NOAEL
Protocol: All in vivo studies were conducted as oral gavage studies, selecting the oral route as most appropriate route of administration to reflect the worst-case exposure scenario. […] The OECD TG 443 included mating of first generation (F1) offspring to produce a second generation (F2), and the DIT and DNT cohorts.

CCCOC(=O)c1ccc(O)cc1 [Propyl paraben, Propyl 4-hydroxybenzoate]
Mutagenicity in mammalian cells classification (mammalian cells): Not mutagenic [c] (OECD 476; 2012)
Genetic toxicity in vivo (rats) classification (rats): Not clastogenic (read-across from MP)
NOAEL, repeated-dose toxicity and DART, all higher-tier studies (Wistar rats; limit dose, oral gavage): 1000 mg/kg bw/day
NOAEL: Accessory sex organs HP (Wistar rats; over all higher-tier studies): 1000 / 1000 mg/kg bw/day
NOAEL: Adrenals HP (Wistar rats; over all higher-tier studies): 1000 / 1000 mg/kg bw/day
NOAEL: Adrenals weight (Wistar rats; over all higher-tier studies): 1000 / 1000 mg/kg bw/day
NOAEL: Age at balano-preputial separation (Wistar rats; over all higher-tier studies): 1000 / 1000 mg/kg bw/day
NOAEL: Age at vaginal opening (Wistar rats; over all higher-tier studies): 1000 / 1000 mg/kg bw/day
NOAEL: Anogenital distance (Wistar rats; over all higher-tier studies): 1000 / 1000 mg/kg bw/day
NOAEL: Auditory startle (Wistar rats; over all higher-tier studies): 1000 / 1000 mg/kg bw/day
NOAEL: Brain HP (Wistar rats; over all higher-tier studies): 1000 / 1000 mg/kg bw/day
NOAEL: Brain morphometric evaluation (Wistar rats; over all higher-tier studies): 1000 / 1000 mg/kg bw/day
NOAEL: Brain weight (Wistar rats; over all higher-tier studies): 1000 / 1000 mg/kg bw/day
NOAEL: Cervix HP (Wistar rats; over all higher-tier studies): 1000 / 1000 mg/kg bw/day
NOAEL: Coagulating gland HP (Wistar rats; over all higher-tier studies): 1000 / 1000 mg/kg bw/day
NOAEL: Coagulating gland weight (Wistar rats; over all higher-tier studies): 1000 / 1000 mg/kg bw/day
NOAEL: Colloid area (thyroid HP) (Wistar rats; over all higher-tier studies): 1000 / 1000 mg/kg bw/day
NOAEL: Dystocia (Wistar rats; over all higher-tier studies): 1000 / 1000 mg/kg bw/day
NOAEL: Epididymis HP (Wistar rats; over all higher-tier studies): 1000 / 1000 mg/kg bw/day
NOAEL: Epididymis weight (Wistar rats; over all higher-tier studies): 1000 / 1000 mg/kg bw/day
NOAEL: Fertility (Wistar rats; over all higher-tier studies): 1000 / 1000 mg/kg bw/day
NOAEL: Foetal development (Wistar rats; over all higher-tier studies): 1000 / 1000 mg/kg bw/day
NOAEL: Functional observation battery (Wistar rats; over all higher-tier studies): 1000 / 1000 mg/kg bw/day
NOAEL: Genital abnormalities (Wistar rats; over all higher-tier studies): 1000 / 1000 mg/kg bw/day
NOAEL: Gestation length (Wistar rats; over all higher-tier studies): 1000 / 1000 mg/kg bw/day
NOAEL: Litter / pup weight (Wistar rats; over all higher-tier studies): 1000 / 1000 mg/kg bw/day
NOAEL: Litter size (Wistar rats; over all higher-tier studies): 1000 / 1000 mg/kg bw/day
NOAEL: Litter viability (Wistar rats; over all higher-tier studies): 1000 / 1000 mg/kg bw/day
NOAEL: Liver weight (Wistar rats; over all higher-tier studies): 1000 / 1000 mg/kg bw/day
NOAEL: Mammary gland HP; females (Wistar rats; over all higher-tier studies): 1000 / 1000 mg/kg bw/day
NOAEL: Mammary gland HP; males (Wistar rats; over all higher-tier studies): 1000 / 1000 mg/kg bw/day
NOAEL: Motor activity (Wistar rats; over all higher-tier studies): 1000 / 1000 mg/kg bw/day
NOAEL: Nipple development (Wistar rats; over all higher-tier studies): 1000 / 1000 mg/kg bw/day
NOAEL: No. of implantations, corpora lutea (Wistar rats; over all higher-tier studies): 1000 / 1000 mg/kg bw/day
NOAEL: No. of live births (Wistar rats; over all higher-tier studies): 1000 / 1000 mg/kg bw/day
NOAEL: No. of ovarian follicles (Wistar rats; over all higher-tier studies): 1000 / 1000 mg/kg bw/day
NOAEL: Oestrus cyclicity (Wistar rats; over all higher-tier studies): 1000 / 1000 mg/kg bw/day
NOAEL: Offspring: learning & memory (Wistar rats; over all higher-tier studies): 1000 / 1000 mg/kg bw/day
NOAEL: Ovary HP (Wistar rats; over all higher-tier studies): 1000 / 1000 mg/kg bw/day
NOAEL: Ovary weight (Wistar rats; over all higher-tier studies): 1000 / 1000 mg/kg bw/day
NOAEL: Oviduct HP (Wistar rats; over all higher-tier studies): 1000 / 1000 mg/kg bw/day
NOAEL: Pituitary HP (Wistar rats; over all higher-tier studies): 1000 / 1000 mg/kg bw/day
NOAEL: Pituitary weight (Wistar rats; over all higher-tier studies): 1000 / 1000 mg/kg bw/day
NOAEL: Postimplantation loss (Wistar rats; over all higher-tier studies): 1000 / 1000 mg/kg bw/day
NOAEL: Pre-implantation loss (Wistar rats; over all higher-tier studies): 1000 / 1000 mg/kg bw/day
NOAEL: Presence of anomalies (Wistar rats; over all higher-tier studies): 1000 / 1000 mg/kg bw/day
NOAEL: Prostate HP (Wistar rats; over all higher-tier studies): 1000 / 1000 mg/kg bw/day
NOAEL: Prostate weight (Wistar rats; over all higher-tier studies): 1000 / 1000 mg/kg bw/day
NOAEL: Pup development (Wistar rats; over all higher-tier studies): 1000 / 1000 mg/kg bw/day
NOAEL: Reproduction (Wistar rats; over all higher-tier studies): 1000 / 1000 mg/kg bw/day
NOAEL: Seminal vesicles HP (Wistar rats; over all higher-tier studies): 1000 / 1000 mg/kg bw/day
NOAEL: Seminal vesicles weight (Wistar rats; over all higher-tier studies): 1000 / 1000 mg/kg bw/day
NOAEL: Sperm morphology (Wistar rats; over all higher-tier studies): 1000 / 1000 mg/kg bw/day
NOAEL: Sperm motility (Wistar rats; over all higher-tier studies): 1000 / 1000 mg/kg bw/day
NOAEL: Sperm numbers (Wistar rats; over all higher-tier studies): 1000 / 1000 mg/kg bw/day
NOAEL: Testis HP (Wistar rats; over all higher-tier studies): 1000 / 1000 mg/kg bw/day
NOAEL: Testis weight (Wistar rats; over all higher-tier studies): 1000 / 1000 mg/kg bw/day
NOAEL: Thyroid HP (Wistar rats; over all higher-tier studies): 1000 / 1000 mg/kg bw/day
NOAEL: Thyroid stimulating hormone level (Wistar rats; over all higher-tier studies): 1000 / 1000 mg/kg bw/day
NOAEL: Thyroid weight (Wistar rats; over all higher-tier studies): 1000 / 1000 mg/kg bw/day
NOAEL: Time to mating (Wistar rats; over all higher-tier studies): 1000 / 1000 mg/kg bw/day
NOAEL: Triiodothyronine / thyroxine level (Wistar rats; over all higher-tier studies): 1000 / 1000 mg/kg bw/day
NOAEL: Uterus HP (with cervix) (Wistar rats; over all higher-tier studies): 1000 / 1000 mg/kg bw/day
NOAEL: Uterus weight (with cervix) (Wistar rats; over all higher-tier studies): 1000 / 1000 mg/kg bw/day
NOAEL: Vagina HP (Wistar rats; over all higher-tier studies): 1000 / 1000 mg/kg bw/day
NOAEL: Vaginal smears (Wistar rats; over all higher-tier studies): 1000 / 1000 mg/kg bw/day
